Test results from PubChem BioAssay (NCI).
Several values for one entry are separate records, joined by “and”; a condition that tells them apart may be missing. Equal values may be shown once.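 48-hour exposure; five concentrations; linearly interpolated endpoints. At the GI50, growth is halved. Definition used: TGI = concentration required for complete inhibition of growth.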 Where a SMILES comes first, the peptide text is derived from it. Bridges are numbered along the chain shown (N, C = ends).

Assays:
Assay in all cases: NCI tumour cell line growth inhibition, 48 h
RXF 393 renal = tested on: RXF 393 renal
HL-60(TB) leukemia = tested on: HL-60(TB) leukemia
OVCAR-8 ovarian = tested on: OVCAR-8 ovarian
HOP-18 NSCLC = tested on: HOP-18 NSCLC
KM20L2 colon = tested on: KM20L2 colon
SK-OV-3 ovarian = tested on: SK-OV-3 ovarian
HCT-116 colon = tested on: HCT-116 colon
HS 578T breast = tested on: HS 578T breast
PC-3 prostate = tested on: PC-3 prostate
HOP-62 NSCLC = tested on: HOP-62 NSCLC

| Structure (SMILES) | GI50 (RXF 393 renal) [µM] | TGI (RXF 393 renal) | GI50 (HL-60(TB) leukemia) | TGI (HL-60(TB) leukemia) | TGI (OVCAR-8 ovarian) | TGI (HOP-18 NSCLC) | TGI (KM20L2 colon) | TGI (SK-OV-3 ovarian) | TGI (HCT-116 colon) | TGI (HS 578T breast) [µM] | GI50 (OVCAR-8 ovarian) | GI50 (HOP-18 NSCLC) | TGI (PC-3 prostate) [µM] | GI50 (SK-OV-3 ovarian) | GI50 (HOP-62 NSCLC) [µM] | TGI (HOP-62 NSCLC) | GI50 (HCT-116 colon) [µM] | GI50 (KM20L2 colon) |
| --- | --- | --- | --- | --- | --- | --- | --- | --- | --- | --- | --- | --- | --- | --- | --- | --- | --- | --- |
| Cc1c2cc[n+](C)cc2c(C)c2c1[nH]c1ccc(OCC(F)(F)F)cc12 | > 100 | > 100 µM | 5.13 µM and 16.4 µM | > 70.4 µM | > 100 µM | 23.4 µM and > 100 µM | > 100 µM | > 100 µM | > 100 µM | – | – | – | – | – | – | – | – | – |
| CC(C)=CC(=O)OC1C2C(C)=CC(=O)C(O)C2(C)C2C3(O)OCC24C(CC(=O)OC14)C(C)C3O (stereo not given) | 0.0339 | 0.0732 µM and 0.131 µM | 0.02 µM | – | 0.125 µM and 0.0247 µM and 0.0683 µM | 0.689 µM and 0.493 µM | 0.197 µM and 0.153 µM | 0.709 µM and 3.74 µM | 0.0172 µM and 0.0807 µM | 0.00523 | 0.0251 µM | 0.192 µM and 0.0777 µM | 0.0129 | 0.549 µM | 0.0315 | 0.0504 µM and 0.0103 µM and 0.0948 µM | 0.02 | – |
| O=Cn1c2ccccc2c2ccccc21 | – | > 100 µM | – | > 100 µM | > 100 µM | > 100 µM | > 100 µM | > 100 µM | > 100 µM | – | – | – | – | – | – | > 100 µM | – | – |
| COC(=O)c1c(CC(=O)OC(C)C)cc2n(c1=O)Cc1c-2nc2ccccc2c1OC | – | 99.6 µM | – | > 100 µM | > 100 µM | > 100 µM | > 100 µM | > 100 µM | > 100 µM | – | – | – | – | – | – | > 100 µM | – | – |
| NCCCNCCSP(=O)(O)O | – | > 750 µM | – | > 721 µM | > 511 µM | > 750 µM | > 750 µM | > 750 µM | > 750 µM | – | – | – | – | – | – | > 750 µM | – | – |
| CN1COCN=C1NC#N | – | – | – | > 100 µM | – | > 100 µM | > 100 µM | > 100 µM | > 100 µM | – | – | – | – | – | – | > 100 µM | – | – |
| N/C(=N\N=C/c1c(O)cc(O)cc1O)NO | – | > 100 µM | – | > 76.9 µM | > 100 µM | > 100 µM | > 100 µM | > 100 µM | > 100 µM | – | – | – | – | – | – | > 100 µM | – | – |
| CSCSCC(CO)NC(=O)/C=C\c1c(C)[nH]c(=O)[nH]c1=O (stereo not given) | – | 249 µM | – | 46.6 µM | 89.9 µM | 267 µM | 129 µM | 74 µM | 96.4 µM | – | – | – | – | – | – | 246 µM | – | – |
| CC12CC(c3ccccc3O1)C(C(=O)Nc1nccs1)C(=O)N2 (stereo not given) | – | > 100 µM | – | > 100 µM | > 100 µM | – | – | > 100 µM | > 100 µM | > 100 | – | – | > 100 | – | – | > 100 µM | – | – |
| COC(=O)C1CCC(=O)NCCCCC(NC(=O)C(N)CC(=O)O)C(=O)N1 (stereo not drawn) (H-Asp-Lys-Glu-OMe; lactam 2-3; configuration not given here) | – | > 100 µM | – | > 100 µM | > 100 µM | – | – | > 100 µM | > 100 µM | > 100 | – | – | > 100 | – | – | > 100 µM | – | – |
| CC1=NN(c2ccccc2)C(=O)/C1=C\c1c(C)[nH]n(-c2ccccc2)c1=O | – | > 100 µM | – | > 100 µM | > 100 µM | – | – | > 100 µM | > 100 µM | > 100 | – | – | > 100 | – | – | > 100 µM | – | – |
| CCOC(=O)c1c(SC(=O)c2ccc(Cl)cc2)n(-c2ccccc2)c(=S)n(-c2ccccc2)c1=O | – | > 100 µM | – | > 100 µM | > 100 µM | – | – | > 100 µM | > 100 µM | > 100 | – | – | > 100 | – | – | > 100 µM | – | – |
| COc1ccc(C2C3=C(COC3=O)Oc3cc4c(cc32)OCO4)cc1OC (stereo not given) | – | 5.7 µM | – | 0.804 µM | > 43.3 µM | – | – | 18.1 µM | > 86.1 µM | 6.14 | – | – | > 31.3 | – | – | > 96.9 µM | – | – |
| Cc1ccc(N2Cc3c(ccc4ccccc34)OP2(=S)N2CCCC2)cc1 (stereo not given) | – | > 100 µM | – | > 100 µM | > 100 µM | > 100 µM | > 100 µM | > 100 µM | > 100 µM | – | – | – | – | – | – | > 100 µM | – | – |
| CNCC(SC)c1ccc(O)c(O)c1 (stereo not given) | – | > 100 µM | – | 37.5 µM | 41.4 µM | – | – | > 100 µM | 43.7 µM | > 100 | – | – | > 100 | – | – | > 100 µM | – | – |
| O=C(Oc1cncc(Cl)c1)c1cc2ccccc2sc1=O | – | 91.1 µM | – | > 100 µM | > 100 µM | – | – | > 100 µM | > 100 µM | > 100 | – | – | > 100 | – | – | > 100 µM | – | – |
| O=C(O)c1c(CC(Cc2ccccc2)C(=O)O)ccc2c1CCC2 (stereo not given) | – | > 100 µM | – | > 100 µM | > 100 µM | – | – | > 100 µM | > 100 µM | > 100 | – | – | > 100 | – | – | > 100 µM | – | – |
| C#CC(O)/C=C/C(O)CCCC(O)CC#CC(O)C#CCCCCC(O)/C=C/CCCC(=O)CCCCCCCCCCCCCCCC(O)C(O)C#CC(=O)O (stereo not given) | – | > 25 µM | – | > 25 µM | > 25 µM | – | – | > 25 µM | > 25 µM | > 25 | – | – | > 25 | – | – | > 25 µM | – | – |
| CN1Cc2ccccc2C2(COc3ccccc3C2=O)C1 (stereo not given) | – | > 100 µM | – | > 100 µM | > 100 µM | > 100 µM | > 100 µM | > 100 µM | > 100 µM | – | – | – | – | – | – | > 100 µM | – | – |
| CCN(CC)CC[n+]1ccc2c(C)c3[nH]c4ccccc4c3c(C)c2c1 | 1.83 | 8.83 µM and 8.41 µM and 7.26 µM | 0.402 µM and < 0.0437 µM | 3.7 µM and 0.464 µM and 0.743 µM | 4.97 µM and 5.17 µM and 2.25 µM | 4.82 µM and 7.88 µM | 1.51 µM and 6.24 µM | 6.13 µM and 11.7 µM and 11.4 µM | – | 0.933 | 0.392 µM and 0.59 µM and 0.195 µM | 0.901 µM and 1.91 µM | 3.18 | 1.35 µM and 2.62 µM and 3.92 µM | – | 3.46 µM and 7.99 µM and 4.74 µM | – | 0.27 µM and 0.782 µM |
| CC1(C)CC(=O)C2=C(C1)NC(=S)C(C#N)C2c1ccccc1 (stereo not given) | – | > 100 µM | – | > 100 µM | > 100 µM | – | – | > 100 µM | > 100 µM | > 100 | – | – | > 100 | – | – | > 100 µM | – | – |
| C/C(N=NS(=O)(=O)c1c(C)cc(C)cc1C)=C1\C=CC=CN1O | – | – | – | > 100 µM | > 100 µM | > 100 µM | > 100 µM | > 100 µM | > 100 µM | – | – | – | – | – | – | > 100 µM | – | – |
| O=C(CCC(NC(=O)OCc1ccccc1)C(=O)OCc1ccccc1)Nc1cccc(OCc2ccccc2)c1 (stereo not given) | – | 46.8 µM | – | 37.6 µM | 78.6 µM | – | – | > 100 µM | 36.4 µM | 39.4 | – | – | 35.9 | – | – | 60.1 µM | – | – |
| CC(C)(C)c1cc(C(C)(C)C)c(SC2OC(CO)C(O)C(O)C2O)c(O)c1O (stereo not given) | – | 14.1 µM | – | 14.5 µM | 27.7 µM | – | – | 32.9 µM | 29.1 µM | 11.6 | – | – | 28.3 | – | – | 33.9 µM | – | – |
